Measurements taken from patent US7161032B2, “Sulfonamide derivatives, insecticides for agricultural and horticultural use, and usage thereof” (Nihon Nohyaku Co., Ltd., priority 2002, dated 2007).

Tests used:
Type in all cases: in vivo
[1] = test system: Smaller Tea Tortrix (Adoxophyes sp.); experiment: Insecticidal effect on smaller tea tortrix (Test Example 3): tea leaves immersed in 50 ppm liquid chemical; details: smaller tea tortrix (Adoxophyes sp.) larvae, 8 days after inoculation, 25° C., humidity 70%
Method in brief: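 Tea leaves dipped about 30 seconds in 50 ppm compound preparation, air-dried, then infested with larvae and held at 25° C and 70% humidity. Dead and alive counted 8 days after inoculation; triplicate groups of 10 insects.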

[2] = test system: Common Cutworm (Spodoptera litura); experiment: Insecticidal effect on common cutworm (Test Example 2): cabbage leaf piece immersed in 50 ppm liquid chemical; details: common cutworm (Spodoptera litura) second-instar larvae, 8 days after inoculation, 25° C.
Method in brief: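 Cabbage leaf pieces (cv. Shikidori) dipped ~30 s in formulated compound at 50 ppm and air-dried. Second-instar larvae added, kept at 25° C. Dead and alive counted at 8 days to give % mortality, scored against a criterion scale; three groups of 10 insects.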

[3] = test system: Diamond Back Moth (Plutella xylostella); experiment: Insecticidal effect on diamond back moth (Test Example 1): egg-bearing Chinese cabbage seedling immersed in 50 ppm liquid chemical
Method in brief: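 Seedlings bearing 2-day-old eggs dipped about 30 s in 50 ppm formulated compound, air-dried, held at 25° C. Hatched larvae counted 6 days after immersion; mortality calculated and graded by criterion. Triplicate groups of 10 insects.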

SMILES | Insecticidal effect (mortality grade), Test Example 3 [1] | Insecticidal effect (mortality grade), Test Example 2 [2] | Insecticidal effect (mortality grade), Test Example 1 [3]
C#CCNS(=O)(=O)CC(C)NC(=O)c1c(I)cccc1C(=O)Nc1ccc(C(F)(C(F)(F)F)C(F)(F)F)cc1C (stereo not drawn) [1-21] | A (Mortality 100%) | A (Mortality 100%) | A (Mortality 100%)
CC[S+]([O-])CCNS(=O)(=O)CC(C)(C)NC(=O)c1c(I)cccc1C(=O)Nc1ccc(C(F)(F)C(F)(F)F)cc1C (stereo not drawn) [1-308] | A (Mortality 100%) | A (Mortality 100%) | A (Mortality 100%)
CSCCNS(=O)(=O)CC(C)NC(=O)c1c(I)cccc1C(=O)Nc1ccc(C(F)(C(F)(F)F)C(F)(F)F)cc1C (stereo not drawn) [1-75] | A (Mortality 100%) | A (Mortality 100%) | A (Mortality 100%)
Cc1cc(C(F)(C(F)(F)F)C(F)(F)F)ccc1NC(=O)c1cccc(I)c1C(=O)NC(C)CS(=O)(=O)N1CCOCC1 (stereo not drawn) [1-54] | A (Mortality 100%) | A (Mortality 100%) | A (Mortality 100%)
CCN(Cc1ccccc1)S(=O)(=O)CC(C)NC(=O)c1c(I)cccc1C(=O)Nc1ccc(C(F)(C(F)(F)F)C(F)(F)F)cc1C (stereo not drawn) [1-43] | A (Mortality 100%) | A (Mortality 100%) | A (Mortality 100%)
Cc1cc(C(F)(F)C(F)(F)F)ccc1NC(=O)c1cccc(I)c1C(=O)NC(C)(C)CS(=O)(=O)NCc1ccccc1 [1-303] | A (Mortality 100%) | A (Mortality 100%) | A (Mortality 100%)
Cc1cc(C(F)(C(F)(F)F)C(F)(F)F)ccc1NC(=O)c1cccc(I)c1C(=O)NC(C)CS(=O)(=O)N1CC[S+]([O-])CC1 (stereo not drawn) [1-56] | A (Mortality 100%) | A (Mortality 100%) | A (Mortality 100%)
Cc1cc(C(F)(C(F)(F)F)C(F)(F)F)ccc1NC(=O)c1cccc(I)c1C(=O)NC(C)CS(=O)(=O)NCCc1ccccc1 (stereo not drawn) [1-47] | A (Mortality 100%) | A (Mortality 100%) | A (Mortality 100%)
CCN(CC)S(=O)(=O)CC(C)(C)NC(=O)c1c(I)cccc1C(=O)Nc1ccc(OC(F)(F)F)cc1C [1-277] | A (Mortality 100%) | A (Mortality 100%) | A (Mortality 100%)
Cc1cc(C(F)(C(F)(F)F)C(F)(F)F)ccc1NC(=O)c1cccc(Br)c1C(=O)NC(C)CS(=O)(=O)NC(C)C (stereo not drawn) [1-216] | A (Mortality 100%) | A (Mortality 100%) | A (Mortality 100%)
Cc1cc(C(F)(C(F)(F)F)C(F)(F)F)ccc1NC(=O)c1cccc(I)c1C(=O)NC(C)CS(=O)(=O)N1CCC(=O)CC1 (stereo not drawn) [1-67] | E (Mortality less than 50%) | E (Mortality less than 50%) | A (Mortality 100%)
COc1ccc(CNS(=O)(=O)CC(C)NC(=O)c2c(I)cccc2C(=O)Nc2ccc(C(F)(C(F)(F)F)C(F)(F)F)cc2C)cc1 (stereo not drawn) [1-35] | A (Mortality 100%) | A (Mortality 100%) | A (Mortality 100%)
Cc1cc(C(F)(C(F)(F)F)C(F)(F)F)ccc1NC(=O)c1cccc(I)c1C(=O)NC(C)(C)CS(=O)(=O)NCc1ccccc1 [1-184] | A (Mortality 100%) | A (Mortality 100%) | A (Mortality 100%)
Cc1cc(C(F)(C(F)(F)F)C(F)(F)F)ccc1NC(=O)c1cccc(I)c1C(=O)NC(C)CS(=O)(=O)N(C)Cc1ccccc1 (stereo not drawn) [1-42] | A (Mortality 100%) | A (Mortality 100%) | A (Mortality 100%)
Cc1cc(C(F)(C(F)(F)F)C(F)(F)F)ccc1NC(=O)c1cccc(I)c1C(=O)N[C@@H](C)CS(=O)(=O)N[C@@H](C)C[S+](C)[O-] (stereo partly drawn) [1-148] | A (Mortality 100%) | A (Mortality 100%) | A (Mortality 100%)
CCNS(=O)(=O)CC(C)(C)NC(=O)c1c(I)cccc1C(=O)Nc1ccc(C(F)(C(F)(F)F)C(F)(F)F)cc1C [1-178] | A (Mortality 100%) | A (Mortality 100%) | A (Mortality 100%)
COCCNS(=O)(=O)CC(C)NC(=O)c1c(I)cccc1C(=O)Nc1ccc(C(F)(C(F)(F)F)C(F)(F)F)cc1C (stereo not drawn) [1-73] | A (Mortality 100%) | A (Mortality 100%) | A (Mortality 100%)
